# Reference: patent US5604256A, “Octahydronaphthalene oxime derivatives for cholesterol biosynthesis inhibition” (Sankyo Company, Limited, priority 1992, dated 1997)
# Structures can show the parent of a compound that is named as a salt.
# Target: T1, HMG-CoA reductase (Rattus norvegicus, UniProt P51639)
# T1 sequence (P51639 1-887): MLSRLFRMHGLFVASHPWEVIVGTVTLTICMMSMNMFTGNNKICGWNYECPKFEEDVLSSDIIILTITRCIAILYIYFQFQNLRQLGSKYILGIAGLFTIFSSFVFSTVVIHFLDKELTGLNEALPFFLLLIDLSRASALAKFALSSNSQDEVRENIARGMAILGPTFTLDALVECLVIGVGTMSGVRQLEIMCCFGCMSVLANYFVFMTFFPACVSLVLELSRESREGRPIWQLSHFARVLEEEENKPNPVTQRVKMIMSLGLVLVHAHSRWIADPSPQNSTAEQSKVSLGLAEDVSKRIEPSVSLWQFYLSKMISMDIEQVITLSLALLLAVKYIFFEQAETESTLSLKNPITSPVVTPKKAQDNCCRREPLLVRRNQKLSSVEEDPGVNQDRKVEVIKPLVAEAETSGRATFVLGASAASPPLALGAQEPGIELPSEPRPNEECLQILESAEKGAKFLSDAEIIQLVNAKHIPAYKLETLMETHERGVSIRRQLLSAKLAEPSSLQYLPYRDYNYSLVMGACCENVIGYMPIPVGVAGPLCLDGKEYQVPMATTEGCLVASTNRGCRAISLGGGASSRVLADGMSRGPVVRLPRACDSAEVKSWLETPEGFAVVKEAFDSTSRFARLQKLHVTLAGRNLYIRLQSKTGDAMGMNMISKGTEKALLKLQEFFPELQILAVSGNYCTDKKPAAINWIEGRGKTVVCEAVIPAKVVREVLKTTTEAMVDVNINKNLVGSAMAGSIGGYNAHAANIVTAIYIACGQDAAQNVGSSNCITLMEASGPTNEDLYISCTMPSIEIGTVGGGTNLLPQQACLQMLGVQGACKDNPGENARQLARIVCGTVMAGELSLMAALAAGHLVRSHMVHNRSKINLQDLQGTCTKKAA
# Experiment: biochemical
# Conditions: Table 3
# From the text: The determination of the inhibitory activity of the compounds was made using the method of Kuroda et al ["Biochimica et Biophysica Acta" Vol. 486, pp. 70-81 (1977)] which is a modification of the known method of D. J. Shapiro et al ["Analytical Biochemistry" Vol. 31, pp. 383-390 (1969)] with some improvements.
row,SMILES,IC50 [nM]
1,CCC(C)C(=O)OC1CCC(=NOCc2c(C)noc2C)C2=CC(=O)C(C)C(CCC(=O)CC(O)CC(=O)O)C21 (stereo not drawn),16.3
2,CCC(C)C(=O)OC1CCC(=NOCc2cnoc2)C2=CC(=O)C(C)C(CCC(=O)CC(O)CC(=O)O)C21 (stereo not drawn),20.2
3,CCC(C)C(=O)OC1CCC(=NOCc2cnoc2)C2=CC(=O)C(C)C(CCC(O)CC(O)CC(=O)O)C21 (stereo not drawn) [Na salt of Compound of Preparation 9],22.8
4,CCC(C)C(=O)OC1CCC(=NOCc2c(C)noc2C)C2=CC(=O)C(C)C(CCC(O)CC(O)CC(=O)O)C21 (stereo not drawn) [Na salt of Compound of Preparation 11],17.3

# Other lines, results leading:
row,IC50 [nM],SMILES
1,16.3,CCC(C)C(=O)OC1CCC(=NOCc2ccccc2)C2=CC(=O)C(C)C(CCC(=O)CC(O)CC(=O)O)C21 (stereo not drawn)
2,18.5,CCC(C)C(=O)OC1CCC(=NOCc2ccccc2)C2=CC(=O)C(C)C(CCC(O)CC(O)CC(=O)O)C21 (stereo not drawn) [Na salt of Compound of Preparation 1]
